Results published in patent US20160324992A1, “IDENTIFICATION AND TREATMENT OF VULNERABLE PLAQUES” (OTTAWA HEART INSTITUTE RESEARCH CORPORATION, priority 2015, published 2016).
Values joined by “and” are separate entries in the source; they are usually repeats but may differ in a detail not shown here. Equal values may be shown once.

How the values were obtained:
[1] = test system: MLKL; test: Western blot of pMLKL in BMDMs; type: cell-based, mouse
Protocol: Western blot analysis. For western blot analysis of RIP3, cells were lysed in 1.25× sample buffer (83 mM Tris pH 6.8, 6.7% SDS, 13.3% Glycerol, 1.3% β-mercaptoethanol, 0.03% bromophenol blue) and boiled at 100° C. for 5 minutes prior to being subjected to SDS-PAGE and western blot analysis. PVDF membranes were blocked with 5% skim milk, followed by incubation with RIP3 (ProSci Inc, 1:500) or HSP90 (Santa Cruz Biotechnology, 1:1000) antibodies. For analysis of MLKL protein, cells were lysed in ice-cold M2 lysis buffer (50 mM NaF, 20 mM Tris, pH 7.0, 0.5% NP40, 250 mM NaCl, 3 mM EDTA, 3 mM EGTA, supplemented with Roche protease and phosphatase inhibitor cocktails) for 30 mins before centrifugation to pellet insoluble component. Samples were mixed 3:1 with 4× sample loading buffer (Bio-rad) prior to SDS PAGE and western blot analysis. PVDF membranes were blocked in 5% BSA and probed with MLKL (Millipore, 1:500) or GAPDH (Millipore, 1:1000) antibodies. Goat anti-mouse (1:2500) or anti-rabbit (1:5000) or anti-rat (1:2500) IRDye® secondary antibodies (Rockland) were utilized. The protein bands were visualized using Odyssey Infrared Imaging System (LI-COR Biotechnology).

[2] = test system: ApoE−/− mice with established atherosclerosis; test: Atherosclerosis study: time-release pellets in Western diet fed ApoE−/− mice; type: in vivo, mouse
Protocol: Atherosclerosis Studies. All animal experiments were performed in accordance with the Animal Care and Use Committee, University of Ottawa, Canada. Eight week old Apo E^−/− mice (total n=17 mice) were fed an adjusted calories diet (21% fat; 0.2% cholesterol, Harlan Teklad) for 4 weeks to induce atherosclerotic progression. Mice were then injected with time-release placebo or Nec-1s tablets (2 mg/kg/day), which were synthesized by Innovative Research of America, USA. Mice were euthanized after 6 weeks of treatment, perfused with saline and aortic roots were embedded in OCT medium and frozen. Aortic roots were sectioned (10 μm) and stained with hematoxylin and eosin for lesion area and necrotic core quantification, and a minimum of 10 sections per animal were measured across the length of the entire aortic root. For en face aortic lesion quantifications, aortas were dissected removing all branching vessels down to the femoral bifurcation and then sliced ventrally and images of aortas were digitally captured using ImagePro™. Lesion areas within the entire length of the aorta were quantified using Image J™ and expressed relative to the total aortic surface area. Immunohistochemistry for vascular smooth muscle cells was performed using a primary antibody for a-smooth muscle actin (monoclonal, Sigma) conjugated to alkaline phosphatase and visualized using SigmaFAST Red (Sigma). Statistical significance between the two groups were analyzed using Students' t-test (p<0.05).
Atherosclerosis Studies. All animal experiments were performed in accordance with the Animal Care and Use Committee, University of Ottawa, Canada. Eight week old apoE−/− mice (total n=17 mice) were fed an adjusted calories diet (21% fat; 0.2% cholesterol, Harlan Teklad) for 4 weeks to induce atherosclerotic progression. Mice were then injected with time-release placebo or stable Necrostatin-1 (Nec-1)15 tablets (2 mg/kg/day), which were synthesized by Innovative Research of America, USA. Mice were euthanized after 6 weeks of treatment, perfused with saline and aortic roots were embedded in OCT medium and frozen. Aortic roots were sectioned (10 μm) and stained with hematoxylin and eosin for lesion area and necrotic core quantification, and a minimum of 10 sections per animal were measured across the length of the entire aortic root. For en face aortic lesion quantifications, aortas were dissected removing all branching vessels down to the femoral bifurcation and then sliced ventrally and images of aortas were digitally captured using ImageProTM. Lesion areas within the entire length of the aorta were quantified using Image JTM and expressed relative to the total aortic surface area. Immunohistochemistry to visualize macrophages and smooth muscle cells was performed using primary antibodies to CD68 (rat monoclonal, Serotec) or phosho-MLKL (rabbit polyclonal, Abcam) with a secondary conjugated to biotin and α-smooth muscle actin (monoclonal, Sigma) conjugated to alkaline phosphatase and visualized using DAB or SigmaFAST Red (Sigma), respectively. Image J was used to quantify positive staining area and statistical significance between the two groups were analyzed using Students' t-test (p<0.05)

## CN1C(=O)C(Cc2c[nH]c3ccccc23)NC1=S (centres unmarked) [Nec-1, necrostatin-1]
[1]
  oxLDL-induced MLKL phosphorylation (in words): dampened
[2]; 2 mg/kg/day, 6 weeks, data not shown
  body weight (in words): not affected
[2]; 2 mg/kg/day, 6 weeks, placebo 34.4%±3.2, p=ns
  CD68+ macrophage area, % of lesion area: 43.5%±3.7
[2]; 2 mg/kg/day, 6 weeks, vs placebo
  increase of smooth muscle actin area within the aortic sinus: 70%
[2]; Western diet 4 weeks then 2 mg/kg/day for 6 weeks
  atherosclerotic lesion area versus placebo (in words): reduced lesion area in the aortic sinus and aorta
[2]; Western diet, 2 mg/kg/day, 6 weeks
  reduction of aortic root lesion area compared to controls: 27%
[2]; Western diet, 2 mg/kg/day, 6 weeks, placebo 0.50±0.03 mm^2
  aortic root lesion area: 0.37±0.05 mm^2
[2]; Western diet, 2 mg/kg/day, 6 weeks, placebo 9.9±0.9%
  en face lesion area as a % of total aorta area: 3.1±0.3%
[2]; Western diet, time-release pellet 2 mg/kg/day, 6 weeks, ascending and descending aorta
  reduction of en face lesion burden compared to placebo: 68%
[2]; aortic sinus lesions, 2 mg/kg/day, 6 weeks
  reduction of pMLKL positive area compared to placebo controls: 63%
[2]; aortic sinus, 2 mg/kg/day, 6 weeks
  reduction of lesion necrotic core area compared to placebo: 62.6% and 62%
